Laboratory results as given in patent US20240199623A1 (ILDONG PHARMACEUTICAL CO., LTD., priority 2020, published 2024).

Target: human wild type-CFTR (Homo sapiens, UniProt P13569)
Assay: Cell-based YFP assay
Set-up: expressed in transfected cells; host or cells: CHO-K1 (Chinese hamster ovary)
Conditions: CHO-K1 cells expressing human wild type-CFTR and YFP-H148Q/I152L; forskolin 20 μM = 100% activity; read-out: Cell-based YFP Assay (EC50) Concentration Range
How it was run: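 I⁻-driven YFP fluorescence quenching at 37 °C: 2 s baseline, addition of 140 mM iodide solution, then 14 s of readings at 0.4 s intervals. Cells were CHO-K1 expressing human wild-type CFTR plus YFP-H148Q/I152L. EC50 derived from averaged triplicates.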

Chain of human wild type-CFTR (P13569 whole entry): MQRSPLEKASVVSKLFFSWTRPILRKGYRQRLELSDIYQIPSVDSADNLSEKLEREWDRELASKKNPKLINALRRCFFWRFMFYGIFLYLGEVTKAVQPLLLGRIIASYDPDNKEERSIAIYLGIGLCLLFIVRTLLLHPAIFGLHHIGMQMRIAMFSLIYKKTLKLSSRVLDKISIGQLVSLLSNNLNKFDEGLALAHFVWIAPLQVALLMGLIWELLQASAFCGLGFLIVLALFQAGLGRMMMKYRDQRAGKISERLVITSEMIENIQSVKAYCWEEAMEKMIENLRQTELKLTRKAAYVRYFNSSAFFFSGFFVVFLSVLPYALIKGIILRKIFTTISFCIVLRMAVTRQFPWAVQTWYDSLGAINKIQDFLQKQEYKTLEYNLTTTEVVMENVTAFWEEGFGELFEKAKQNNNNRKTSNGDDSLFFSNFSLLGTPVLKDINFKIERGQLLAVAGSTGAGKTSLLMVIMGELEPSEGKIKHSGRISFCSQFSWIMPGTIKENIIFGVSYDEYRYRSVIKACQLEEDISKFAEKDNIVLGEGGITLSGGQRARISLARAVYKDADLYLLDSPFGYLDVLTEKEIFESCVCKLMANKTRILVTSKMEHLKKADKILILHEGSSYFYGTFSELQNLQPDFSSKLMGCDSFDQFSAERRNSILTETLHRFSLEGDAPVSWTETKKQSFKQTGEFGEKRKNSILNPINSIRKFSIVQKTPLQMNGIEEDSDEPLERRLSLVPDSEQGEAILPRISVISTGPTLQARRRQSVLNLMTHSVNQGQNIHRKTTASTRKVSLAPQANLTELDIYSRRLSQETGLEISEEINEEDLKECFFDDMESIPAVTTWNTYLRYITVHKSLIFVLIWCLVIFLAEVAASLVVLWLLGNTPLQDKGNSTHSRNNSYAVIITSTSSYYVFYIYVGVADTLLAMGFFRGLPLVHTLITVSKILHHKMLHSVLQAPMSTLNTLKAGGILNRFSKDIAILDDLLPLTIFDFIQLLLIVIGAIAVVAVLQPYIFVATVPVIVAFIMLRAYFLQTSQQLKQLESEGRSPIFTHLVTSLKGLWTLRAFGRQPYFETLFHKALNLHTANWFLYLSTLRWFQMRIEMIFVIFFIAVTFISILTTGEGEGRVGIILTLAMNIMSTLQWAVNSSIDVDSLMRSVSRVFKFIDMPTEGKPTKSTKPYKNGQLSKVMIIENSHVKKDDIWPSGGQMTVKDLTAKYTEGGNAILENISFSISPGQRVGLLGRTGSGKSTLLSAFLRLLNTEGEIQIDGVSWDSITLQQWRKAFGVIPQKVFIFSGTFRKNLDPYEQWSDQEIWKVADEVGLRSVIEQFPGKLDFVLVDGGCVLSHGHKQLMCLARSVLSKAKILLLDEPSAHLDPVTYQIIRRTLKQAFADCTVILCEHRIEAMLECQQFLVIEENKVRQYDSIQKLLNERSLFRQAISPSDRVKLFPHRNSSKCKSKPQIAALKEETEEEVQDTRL

**Q.** Which EC50 does the source give for `COc1ccc(-c2ccnc3cc(C(=O)Nc4ccc(N5CCN(C(C)C)CC5)cc4)nn23)cc1OC` [Compound 266, 7-(3,4-dimethoxyphenyl)-N-(4-(4-isopropylpiperazin-1-yl)phenyl)pyrazolo[1,5-a]pyrimidine-2-carboxamide] here?
**A.** < 200 nM

**Q.** Which EC50 does the source give for `COc1ccc(-c2ccnc3cc(C(=O)N4CCN(C(=O)c5cccc(C)c5)[C@@H](C)C4)nn23)cc1OC` [Compound 369, (S)-(7-(3,4-dimethoxyphenyl)pyrazolo[1,5-a]pyrimidin-2-yl)(3-methyl-4-(3-methylbenzoyl)piperazin-1-yl)methanone] here?
**A.** < 200 nM

**Q.** With `COc1ccc(-c2ccnc3cc(C(=O)N4CCCc5cc(C(=O)N6CCOCC6)ccc54)nn23)cc1OC` [Compound 236, (7-(3,4-dimethoxyphenyl)pyrazolo[1,5-a]pyrimidin-2-yl)(6-(morpholine-4-carbonyl)-3,4-dihydroquinolin-1(2H)-yl)methanone] as the compound, how does the EC50 read?
**A.** ≥ 2000 nM

**Q.** With `COc1ccc(-c2ccnc3cc(C(=O)N4CCN(Cc5ccccc5)[C@@H](C)C4)nn23)cc1OC` [Compound 206, (S)-(4-benzyl-3-methylpiperazin-1-yl) (7-(3,4-dimethoxyphenyl)pyrazolo [1,5-a]pyrimidin-2-yl)methanone] as the compound, how does the EC50 read?
**A.** 200 to 2000 nM

**Q.** `COc1ccc(-c2ccnc3cc(C(=O)Nc4ccc(C(=O)N5CCOCC5)c(C)c4)nn23)cc1OC` [Compound 214, 7-(3,4-dimethoxyphenyl)-N-(3-methyl-4-(morpholine-4-carbonyl)phenyl)pyrazolo[1,5-a]pyrimidine-2-carboxamide] was tested. Which EC50 did it give?
**A.** ≥ 2000 nM

**Q.** With `COc1ccc(-c2ccnc3cc(C(=O)Nc4ccc(NC(=O)CN(C)C)cc4)nn23)cc1OC` [Compound 258, 7-(3,4-dimethoxyphenyl)-N-(4-(2-(dimethylamino)acetamido)phenyl)pyrazolo[1,5-a]pyrimidine-2-carboxamide] as the compound, how does the EC50 read?
**A.** < 200 nM

**Q.** With `COc1ccc(-c2ccnc3cc(C(=O)Nc4ccc(C(=O)N[C@@H](Cc5ccccc5)C(=O)O)cc4)nn23)cc1OC` [Compound 49, (4-(7-(3,4-dimethoxyphenyl)pyrazolo[1,5-a]pyrimidine-2-carboxamido)benzoyl)-L-phenylalanine] as the compound, how does the EC50 read?
**A.** 200 to 2000 nM

**Q.** With `COc1ccc(-c2ccnc3cc(C(=O)N4CCN(C5CC5)CC4)nn23)cc1OC` [Compound 184, (4-cyclopropylpiperazin-1-yl)(7-(3,4-dimethoxyphenyl)pyrazolo [1,5-a]pyrimidin-2-yl)methanone] as the compound, how does the EC50 read?
**A.** 200 to 2000 nM

**Q.** `COc1ccc(-c2ccnc3cc(C(=O)N4CC(NC(=O)OC(C)(C)C)C4)nn23)cc1OC` [Compound 116, tert-butyl (1-(7-(3,4-dimethoxyphenyl)pyrazolo [1,5-a]pyrimidine-2-carbonyl)azetidin-3-yl) carbamate] was tested. Which EC50 did it give?
**A.** 200 to 2000 nM

**Q.** With `COc1ccc(-c2ccnc3cc(C(=O)N4CCN[C@@H](C)C4)nn23)cc1OC` [Compound 181, (S)-(7-(3,4-dimethoxyphenyl)pyrazolo[1,5-a]pyrimidin-2-yl)(3-methylpiperazin-1-yl)methanone] as the compound, how does the EC50 read?
**A.** ≥ 2000 nM

**Q.** With `COc1ccc(-c2ccnc3cc(C(=O)N4CCN(C(=O)OC(C)(C)C)[C@H](C)C4)nn23)cc1OC` [Compound 321, tert-butyl (R)-4-(7-(3,4-dimethoxyphenyl)pyrazolo [1,5-a]pyrimidine-2-carbonyl)-2-methylpiperazine-1-carboxylate] as the compound, how does the EC50 read?
**A.** 200 to 2000 nM

**Q.** With `CCCOc1ccc(NC(=O)c2cc3nccc(-c4ccc(OC)c(OC)c4)n3n2)cc1` [Compound 230, 7-(3,4-dimethoxyphenyl)-N-(4-propoxyphenyl)pyrazolo [1,5-a]pyrimidine-2-carboxamide] as the compound, how does the EC50 read?
**A.** < 200 nM

**Q.** With `COc1ccc(-c2ccnc3cc(C(=O)NC(=Cc4ccccc4)C(=O)O)nn23)cc1OC` [Compound 108, 2-(7-(3,4-dimethoxyphenyl)pyrazolo[1,5-a]pyrimidine-2-carboxamido)-3-phenylacrylic acid] as the compound, how does the EC50 read?
**A.** ≥ 2000 nM

**Q.** With `COc1ccc(-c2ccnc3cc(C(=O)Nc4ccc(C(=O)NCCN(C(C)C)C(C)C)cc4)nn23)cc1OC` [Compound 120, N-(4-((2-(diisopropylamino)ethyl)carbamoyl)phenyl)-7-(3,4-dimethoxyphenyl) pyrazolo[1,5-a]pyrimidine-2-carboxamide] as the compound, how does the EC50 read?
**A.** < 200 nM

**Q.** For `COc1ccc(-c2ccnc3cc(C(=O)N[C@H]4CC[C@H](C(=O)N5CCNCC5)CC4)nn23)cc1OC` [Compound 82, 7-(3,4-dimethoxyphenyl)-N-((1R,4R)-4-(piperazine-1-carbonyl)cyclohexyl) pyrazolo[1,5-a]pyrimidine-2-carboxamide], which EC50 is on record?
**A.** ≥ 2000 nM

**Q.** How did the EC50 turn out when `COCCOCOc1ccc(NC(=O)c2cc3nccc(-c4ccc(OC)c(OC)c4)n3n2)cc1` [Compound 346, 7-(3,4-dimethoxyphenyl)-N-(4-((2-methoxyethoxy)methoxy)phenyl)pyrazolo[1,5-a]pyrimidine-2-carboxamide] was run?
**A.** < 200 nM

**Q.** With `CCOc1ccc(NC(=O)c2cc3nccc(-c4ccccc4)n3n2)cc1` [Compound 300, N-(4-ethoxyphenyl)-7-phenylpyrazolo[1,5-a]pyrimidine-2-carboxamide] as the compound, how does the EC50 read?
**A.** ≥ 2000 nM

**Q.** How did the EC50 turn out when `CCOc1ccc(NC(=O)c2cc3nccc(-c4ccc(F)c(Cl)c4)n3n2)cc1` [Compound 316, 7-(3-chloro-4-fluorophenyl)-N-(4-ethoxyphenyl)pyrazolo [1,5-a]pyrimidine-2-carboxamide] was run?
**A.** ≥ 2000 nM

**Q.** With `COc1ccc(-c2ccnc3cc(C(=O)N4CCN(C(=O)c5ccc(F)cc5)[C@@H](C)C4)nn23)cc1OC` [Compound 350, (S)-(7-(3,4-dimethoxyphenyl)pyrazolo[1,5-a]pyrimidin-2-yl)(4-(4-fluorobenzoyl)-3-methylpiperazin-1-yl) methanone] as the compound, how does the EC50 read?
**A.** < 200 nM

**Q.** For `COc1ccc(-c2ccnc3cc(C(=O)N4CC[C@@H](O)C4)nn23)cc1OC` [Compound 150, (R)-(7-(3,4-dimethoxyphenyl)pyrazolo[1,5-a]pyrimidin-2-yl)(3-hydroxypyrrolidin-1-yl)methanone], which EC50 is on record?
**A.** ≥ 2000 nM

**Q.** For `CCN(CC)CCCNC(=O)c1ccc(NC(=O)c2cc3nccc(-c4ccc(OC)c(OC)c4)n3n2)cc1` [Compound 222, N-(4-((3-(diethylamino)propyl)carbamoyl)phenyl)-7-(3,4-dimethoxyphenyl) pyrazolo[1,5-a]pyrimidine-2-carboxamide], which EC50 is on record?
**A.** ≥ 2000 nM

**Q.** With `CCOc1ccc(NC(=O)c2cc3nccc(-c4cccs4)n3n2)cc1` [Compound 303, N-(4-ethoxyphenyl)-7-(thiophen-2-yl) pyrazolo[1,5-a]pyrimidine-2-carboxamide] as the compound, how does the EC50 read?
**A.** ≥ 2000 nM

**Q.** How did the EC50 turn out when `CCOc1ccc(NC(=O)c2cc3nccc(-c4cc(OC)cc(OC)c4)n3n2)cc1` [Compound 315, 7-(3,5-dimethoxyphenyl)-N-(4-ethoxyphenyl)pyrazolo [1,5-a]pyrimidine-2-carboxamide] was run?
**A.** ≥ 2000 nM

**Q.** How did the EC50 turn out when `COc1ccc(-c2ccnc3cc(C(=O)N[C@H]4CC[C@H](C(=O)NC5CCN(C6CCOCC6)CC5)CC4)nn23)cc1OC` [Compound 340, 7-(3,4-dimethoxyphenyl)-N-((1R,4R)-4-((1-(tetrahydro-2H-pyran-4-yl)piperidin-4-yl)carbamoyl)cyclohexyl) pyrazolo[1,5-a] pyrimidine-2-carboxamide] was run?
**A.** ≥ 2000 nM

**Q.** For `CCCOC(=O)c1ccc(NC(=O)c2cc3nccc(-c4ccc(OC)c(OC)c4)n3n2)cc1` [Compound 335, propyl 4-(7-(3,4-dimethoxyphenyl)pyrazolo [1,5-a]pyrimidine-2-carboxamido)benzoate], which EC50 is on record?
**A.** < 200 nM

**Q.** Which EC50 does the source give for `O=C(Nc1ccc(O)cc1)c1cc2nccc(-c3ccc(O)c(O)c3)n2n1` [Compound 38, 7-(3,4-dihydroxyphenyl)-N-(4-hydroxyphenyl)pyrazolo [1,5-a]pyrimidine-2-carboxamide] here?
**A.** 200 to 2000 nM

**Q.** `COc1ccc(-c2ccnc3cc(C(=O)N4CCN(C(=O)c5cccc(F)c5)[C@@H](C)C4)nn23)cc1OC` [Compound 263, (S)-(7-(3,4-dimethoxyphenyl)pyrazolo[1,5-a]pyrimidin-2-yl)(4-(3-fluorobenzoyl)-3-methylpiperazin-1-yl) methanone] was tested. Which EC50 did it give?
**A.** 200 to 2000 nM

**Q.** Which EC50 does the source give for `COc1ccc(-c2ccnc3cc(C(=O)Nc4ccc(C(=O)NCCO)cc4)nn23)cc1OC` [Compound 53, 7-(3,4-dimethoxyphenyl)-N-(4-((2-hydroxyethyl)carbamoyl)phenyl)pyrazolo[1,5-a] pyrimidine-2-carboxamide] here?
**A.** 200 to 2000 nM

**Q.** Which EC50 does the source give for `COc1ccc(-c2ccnc3cc(C(=O)N4CCN(c5ccccn5)CC4)nn23)cc1OC` [Compound 153, (7-(3,4-dimethoxyphenyl)pyrazolo[1,5-a]pyrimidin-2-yl)(4-(pyridin-2-yl)piperazin-1-yl)methanone] here?
**A.** 200 to 2000 nM

**Q.** With `COC(=O)c1ccc(NC(=O)c2cc3nccc(-c4ccccc4)n3n2)cc1` [Compound 305, methyl 4-(7-phenylpyrazolo[1,5-a]pyrimidine-2-carboxamido)benzoate] as the compound, how does the EC50 read?
**A.** ≥ 2000 nM

**Q.** For `COc1ccc(-c2ccnc3cc(C(=O)NCc4ccc(N5CCN(C)CC5)cc4)nn23)cc1OC` [Compound 245, 7-(3,4-dimethoxyphenyl)-N-(4-(4-methylpiperazin-1-yl)benzyl)pyrazolo[1,5-a]pyrimidine-2-carboxamide], which EC50 is on record?
**A.** ≥ 2000 nM

**Q.** Which EC50 does the source give for `O=C(Nc1ccc(N2CCOCC2)cn1)c1cc2nccc(-c3ccc(OC(F)(F)F)c(Cl)c3)n2n1` [Compound 299, 7-(3-chloro-4-(trifluoromethoxy)phenyl)-N-(5-morpholinopyridin-2-yl) pyrazolo[1,5-a]pyrimidine-2-carboxamide] here?
**A.** ≥ 2000 nM

**Q.** For `COc1ccc(-c2ccnc3cc(C(=O)N4CCNC(=O)C4)nn23)cc1OC` [Compound 180, 4-(7-(3,4-dimethoxyphenyl)pyrazolo[1,5-a]pyrimidine-2-carbonyl) piperazin-2-one], which EC50 is on record?
**A.** ≥ 2000 nM

**Q.** With `COc1ccc(-c2ccnc3cc(C(=O)NC4CCC(N(C)C)CC4)nn23)cc1OC` (stereo not shown) [Compound 27, 7-(3,4-dimethoxyphenyl)-N-(4-(dimethylamino)cyclohexyl) pyrazolo[1,5-a]pyrimidine-2-carboxamide] as the compound, how does the EC50 read?
**A.** ≥ 2000 nM
